In ChEMBL document CHEMBL1154382, “Preliminary SAR analysis of novel antiproliferative N(6),5'-bis-ureidoadenosine derivatives” (2009):

Key:
Assay type in all cases: functional
M14 = test: Antiproliferative activity against human M14 cells at 10 uM assessed as cell growth inhibition relative to control; settings: values are per cent of control
SF-295 [1] = test: Antiproliferative activity against human SF295 cells at 10 uM assessed as cell growth inhibition relative to control; settings: values are per cent of control
RXF 393 [2] = test: Antiproliferative activity against human RXF393 cells
CCRF-CEM [3] = test: Antiproliferative activity against human CCRF-CEM cells at 10 uM assessed as cell growth inhibition relative to control; settings: values are per cent of control
SK-MEL-2 = test: Antiproliferative activity against human SK-MEL-2 cells at 10 uM assessed as cell growth inhibition relative to control; settings: values are per cent of control
KM12 = test: Antiproliferative activity against human KM12 cells
IGROV-1 [4] = test: Antiproliferative activity against human IGROV1 cells at 10 uM assessed as cell growth inhibition relative to control; settings: values are per cent of control
T47D [5] = test: Antiproliferative activity against human T47D cells
SF-295 [6] = test: Antiproliferative activity against human SF295 cells
SK-MEL-28 = test: Antiproliferative activity against human SK-MEL-28 cells
IGROV-1 [7] = test: Antiproliferative activity against human IGROV1 cells
COLO 205 [8] = test: Antiproliferative activity against human COLO205 cells at 10 uM assessed as cell growth inhibition relative to control; settings: values are per cent of control
HCT-15 = test: Antiproliferative activity against human HCT15 cells
A498 [9] = test: Antiproliferative activity against human A498 cells at 10 uM assessed as cell growth inhibition relative to control; settings: values are per cent of control
HOP-92 = test: Antiproliferative activity against human HOP92 cells at 10 uM assessed as cell growth inhibition relative to control; settings: values are per cent of control
BT-549 = test: Antiproliferative activity against human BT549 cells at 10 uM assessed as cell growth inhibition relative to control; settings: values are per cent of control
SF-539 [10] = test: Antiproliferative activity against human SF539 cells at 10 uM assessed as cell growth inhibition relative to control; settings: values are per cent of control
DU-145 [11] = test: Antiproliferative activity against human DU145 cells at 10 uM assessed as cell growth inhibition relative to control; settings: values are per cent of control
786-0 = test: Antiproliferative activity against human 786-0 cells at 10 uM assessed as cell growth inhibition relative to control; settings: values are per cent of control
DU-145 [12] = test: Antiproliferative activity against human DU145 cells
LOX IMVI = test: Antiproliferative activity against human LOXIMVI cells
A549 = test: Antiproliferative activity against human A549 cells at 10 uM assessed as cell growth inhibition relative to control; settings: values are per cent of control
HOP-62 [13] = test: Antiproliferative activity against human HOP62 cells at 10 uM assessed as cell growth inhibition relative to control; settings: values are per cent of control
UACC-257 = test: Antiproliferative activity against human UACC257 cells at 10 uM assessed as cell growth inhibition relative to control; settings: values are per cent of control
NCI-H322M = test: Antiproliferative activity against human NCI-H322M cells
K562 = test: Antiproliferative activity against human K562 cells at 10 uM assessed as cell growth inhibition relative to control; settings: values are per cent of control
NCI-H460 [14] = test: Antiproliferative activity against human NCI-H460 cells at 10 uM assessed as cell growth inhibition relative to control; settings: values are per cent of control
T47D [15] = test: Antiproliferative activity against human T47D cells at 10 uM assessed as cell growth inhibition relative to control; settings: values are per cent of control
CCRF-CEM [16] = test: Antiproliferative activity against human CCRF-CEM cells
SF-268 = test: Antiproliferative activity against human SF268 cells
HOP-62 [17] = test: Antiproliferative activity against human HOP62 cells
HL-60(TB) [18] = test: Antiproliferative activity against human HL-60(TB) cells at 10 uM assessed as cell growth inhibition relative to control; settings: values are per cent of control
RXF 393 [19] = test: Antiproliferative activity against human RXF393 cells at 10 uM assessed as cell growth inhibition relative to control; settings: values are per cent of control
NCI-H226 = test: Antiproliferative activity against human NCI-H226 cells
SF-539 [20] = test: Antiproliferative activity against human SF539 cells
HCC 2998 = test: Antiproliferative activity against human HCC2998 cells at 10 uM assessed as cell growth inhibition relative to control; settings: values are per cent of control
[21] = Antiproliferative activity against human […] cells
OVCAR-5 = test: Antiproliferative activity against human OVCAR5 cells
SNB-19 = test: Antiproliferative activity against human SNB19 cells
NCI-H522 = test: Antiproliferative activity against human NCI-H522 cells
OVCAR-8 = test: Antiproliferative activity against human OVCAR8 cells
SW-620 [22] = test: Antiproliferative activity against human SW620 cells at 10 uM assessed as cell growth inhibition relative to control; settings: values are per cent of control
[23] = Antiproliferative activity against human […] cells at 10 uM assessed as cell growth inhibition relative to control; settings: values are per cent of control
MOLT-4 = test: Antiproliferative activity against human MOLT4 cells at 10 uM assessed as cell growth inhibition relative to control; settings: values are per cent of control
COLO 205 [24] = test: Antiproliferative activity against human COLO205 cells
Malme-3M = test: Antiproliferative activity against human MALME-3M cells at 10 uM assessed as cell growth inhibition relative to control; settings: values are per cent of control
A498 [25] = test: Antiproliferative activity against human A498 cells
NCI-H460 [26] = test: Antiproliferative activity against human NCI-H460 cells
SW-620 [27] = test: Antiproliferative activity against human SW620 cells
HL-60(TB) [28] = test: Antiproliferative activity against human HL-60(TB) cells
[29] = Antiproliferative activity against human Hs 578T cells at 10 uM assessed as cell growth inhibition relative to control; settings: values are per cent of control

Compound `CCOC(=O)C[C@H]1[C@@H](O[Si](C)(C)C(C)(C)C)[C@H](n2cnc3c(NC(=O)Nc4ccccc4)ncnc32)O[C@@H]1COC(=O)NC` has a growth, % of control at 10 µM (M14) of 57%, a growth, % of control at 10 µM (SF-295 [1]) of 66% and a GI50 (RXF 393 [2]) of 2.94 µM. The growth, % of control at 10 µM (CCRF-CEM [3]) was 57%, the growth, % of control at 10 µM (SK-MEL-2) was 60% and the GI50 (KM12) was 3.21 µM. It also gave a growth, % of control at 10 µM (IGROV-1 [4]) of 49%, a GI50 (T47D [5]) of 4.95 µM and a GI50 (SF-295 [6]) of 2.83 µM. The GI50 (SK-MEL-28) was 7.77 µM, the GI50 (IGROV-1 [7]) was 13.7 µM and the growth, % of control at 10 µM (COLO 205 [8]) was 67%. The GI50 (HCT-15) was 11.7 µM, the growth, % of control at 10 µM (A498 [9]) was 77% and the growth, % of control at 10 µM (HOP-92) was 62%. For the same compound, the growth, % of control at 10 µM (BT-549) was 65%, the growth, % of control at 10 µM (SF-539 [10]) was 33% and the growth, % of control at 10 µM (DU-145 [11]) was 59%. For the same compound, the growth, % of control at 10 µM (786-0) was 73%, the GI50 (DU-145 [12]) was 5.21 µM and the GI50 (LOX IMVI) was 7.78 µM. For the same compound, the growth, % of control at 10 µM (A549) was 51%, the growth, % of control at 10 µM (HOP-62 [13]) was 77% and the growth, % of control at 10 µM (UACC-257) was 60%. For the same compound, the GI50 (NCI-H322M) was 31.7 µM, the growth, % of control at 10 µM (K562) was 23% and the growth, % of control at 10 µM (NCI-H460 [14]) was 13%. For the same compound, the growth, % of control at 10 µM (T47D [15]) was 29%, the GI50 (CCRF-CEM [16]) was 3.23 µM and the GI50 (SF-268) was 5.06 µM. The GI50 (HOP-62 [17]) was 14.7 µM, the growth, % of control at 10 µM (HL-60(TB) [18]) was 23% and the growth, % of control at 10 µM (RXF 393 [19]) was 35%. For the same compound, the GI50 (NCI-H226) was 11.8 µM, the GI50 (SF-539 [20]) was 11.5 µM and the growth, % of control at 10 µM (HCC 2998) was -9%. For the same compound, the GI50 [21] was 2.16 µM, the GI50 (OVCAR-5) was 12.8 µM and the GI50 (SNB-19) was 49.2 µM. The GI50 (NCI-H522) was 9.58 µM, the GI50 (OVCAR-8) was 10.3 µM and the growth, % of control at 10 µM (SW-620 [22]) was 72%. For the same compound, the growth, % of control at 10 µM [23] was 39%, the growth, % of control at 10 µM (MOLT-4) was 34% and the GI50 (COLO 205 [24]) was 7.7 µM. It also gave a growth, % of control at 10 µM (Malme-3M) of 54%, a GI50 (A498 [25]) of 4.65 µM and a GI50 (NCI-H460 [26]) of 4.45 µM. It also gave a GI50 (SW-620 [27]) of 4.59 µM, a GI50 (HL-60(TB) [28]) of 0.00139 µM and a growth, % of control at 10 µM [29] of 57%.
